Test results as given in patent publication US8354414B2, “Substituted bicyclic pyrimidines” (Cephalon, Inc, priority 2006, dated 2013).
Structures can show the parent of a compound that is named as a salt. Where two headings read alike, the source gives them in different places.

Experiments:
CDK5/GST-p25 = biological target: T1, CDK5/GST-p25 (Homo sapiens, UniProt Q00535); assay: Inhibition of CDK5/GST-p25 kinase activity (ELISA with time-resolved fluorescence readout); format: biochemical
T1 construct: The final construct, encoding for full-length human CDK5; made in house; host or cells: Sf21 insect cells (baculovirus co-infection)
T1 sequence (Q00535 whole entry): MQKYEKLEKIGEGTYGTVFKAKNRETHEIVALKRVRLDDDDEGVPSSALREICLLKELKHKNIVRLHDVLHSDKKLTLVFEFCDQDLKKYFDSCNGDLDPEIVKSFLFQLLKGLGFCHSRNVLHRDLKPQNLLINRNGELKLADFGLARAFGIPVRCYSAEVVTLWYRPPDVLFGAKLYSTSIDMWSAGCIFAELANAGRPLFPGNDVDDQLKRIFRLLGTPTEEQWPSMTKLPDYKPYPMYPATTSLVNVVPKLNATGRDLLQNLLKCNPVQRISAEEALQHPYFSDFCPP
T1 sequence (Q15078 108-307 partner limits assumed): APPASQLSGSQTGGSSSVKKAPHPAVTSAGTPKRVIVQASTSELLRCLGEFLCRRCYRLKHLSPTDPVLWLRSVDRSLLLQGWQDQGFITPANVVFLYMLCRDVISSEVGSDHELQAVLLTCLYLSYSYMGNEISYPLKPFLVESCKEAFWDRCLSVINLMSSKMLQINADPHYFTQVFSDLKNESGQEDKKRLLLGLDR
Summary of the method: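 Sf21-coexpressed full-length human CDK5 with GST-p25 (p35 aa 108-307), glutathione-purified, at 2 ng/ml was reacted for 20 min at 37 °C on plate-coated GST-Rb(773-928). Buffer was 20 mM HEPES pH 7.2, 10 µM ATP, 10 mM MgCl2 and 2.5% DMSO. Phospho-Rb Ser-780 was detected by Eu-labelled antibody TRF, and IC50 curves were fitted.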

His6-GSK-3β = biological target: T2, His6-GSK-3β (Homo sapiens, UniProt P49841); assay: Inhibition of His6-GSK-3β kinase activity (ELISA-based format, time-resolved fluorescence readout); format: biochemical; conditions: read-out: GSK3β IC50
T2 construct: made in house; host or cells: Sf21 insect cells (baculovirus)
T2 sequence (P49841 2-419): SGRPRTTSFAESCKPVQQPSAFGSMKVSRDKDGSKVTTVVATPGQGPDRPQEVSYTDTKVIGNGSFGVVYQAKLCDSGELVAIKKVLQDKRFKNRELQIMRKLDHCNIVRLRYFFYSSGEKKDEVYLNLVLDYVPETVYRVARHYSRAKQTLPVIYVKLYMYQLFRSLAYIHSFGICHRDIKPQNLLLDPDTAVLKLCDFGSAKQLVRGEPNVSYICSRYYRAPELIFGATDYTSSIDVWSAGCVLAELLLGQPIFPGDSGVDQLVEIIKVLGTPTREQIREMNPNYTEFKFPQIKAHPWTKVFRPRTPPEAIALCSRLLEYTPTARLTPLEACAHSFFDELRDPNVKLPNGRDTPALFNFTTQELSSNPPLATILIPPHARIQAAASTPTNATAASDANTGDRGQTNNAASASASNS
Summary of the method: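 N-terminal His6-tagged full-length human GSK-3β (aa 2-419) expressed in Sf21 cells, 200 ng/ml, phosphorylating plate-coated GST-Rb with 20 μM ATP in pH 7.2 HEPES buffer, 30 min at 37° C. Phospho-Rb (Ser-780) detected by antibody plus Eu-labelled secondary, time-resolved fluorescence; IC50 from curves.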

SMILES	IC50 (CDK5/GST-p25; class symbols)	IC50 (His6-GSK-3β; class symbols)	melting point	IC50 (CDK5/GST-p25; numeric bounds)	inhibition at 10 µM (CDK5/GST-p25)	IC50 (His6-GSK-3β; numeric bounds)
O=C1Nc2ccc(Br)cc2C1c1ncnc2c1cnn2C1CCCCC1 (stereo not drawn) [Example 75, 5-Bromo-3-(1-Cyclohexyl-1H-pyrazolo[3,4-d]pyrimidin-4-yl)-1,3-dihydro-indol-2-one]	> 10000 nM	> 10000 nM	305 to 308 °C	–	–	–
O=C1Nc2c(cc([N+](=O)[O-])cc2[N+](=O)[O-])C1c1ncnc2c1cnn2C1CCCC1 (stereo not drawn) [Example 60, 3-(1-cyclopentyl-1H-pyrazolo[3,4-d]pyrimidin-4-yl)-5,7-dinitro-1,3-dihydro-indol-2-one]	> 10000 nM	> 10000 nM	242 to 246 °C	–	–	–
O=C1Nc2c(F)cc(F)cc2C1c1ncnc2nn(C3CCCC3)cc12 (stereo not drawn) [Example 35, 3-(2-Cyclopentyl-2H-pyrazolo[3,4-d]pyrimidin-4-yl)-5,7-difluoro-1,3-dihydro-indol-2-one]	–	300 to 3000 nM	296 to 297 °C	> 3000 nM	–	–
CNc1nc(C2C(=O)Nc3ccccc32)c2cn(C3CCCC3)nc2n1 (stereo not drawn) [Example 154, 3-(2-cyclopentyl-6-methylamino-2H-pyrazolo [3,4-d]pyrimidin-4-yl)-1,3-dihydro-indol-2-one]	–	300 to 3000 nM	> 300 °C	–	68%	–
O=C1Nc2ccc([N+](=O)[O-])cc2C1c1ncnc2c1cnn2C1CCCC1 (stereo not drawn) [Example 57, 3-(1-Cyclopentyl-1H-pyrazolo[3,4-d]pyrimidin-4-yl)-5-nitro-1,3-dihydro-indol-2-one]	> 10000 nM	300 to 3000 nM	> 300 °C (dec.)	–	–	–
N#Cc1ccc2c(c1)C(c1ncnc3c1cnn3C1CCCC1)C(=O)N2 (stereo not drawn) [Example 55, 3-(1-Cyclopentyl-1H-pyrazolo[3,4-d]pyrimidin-4-yl)-2-oxo-2,3-dihydro-1H-indole-5-carbonitrile]	> 10000 nM	300 to 3000 nM	> 300 °C	–	–	–
O=C1Nc2ccc(C(F)(F)F)cc2C1c1nc(Cl)nc2nn(C3CCCC3)cc12 (stereo not drawn) [Example 153, 3-(6-Chloro-2-cyclopentyl-2H-pyrazolo [3,4-d]pyrimidin-4-yl)-5-trifluoromethyl-1,3-dihydro-indol-2-one]	> 10000 nM	–	> 300 °C	–	–	> 3000 nM
CN(C)CCCNc1nc(C2C(=O)Nc3ccc(Br)cc32)c2cn(C)nc2n1 (stereo not drawn) [Example 307, 5-Bromo-3-[6-(3-dimethylamino-propylamino)-2-methyl-2H-pyrazolo[3,4-d]pyrimidin-4-yl]-1,3-dihydro-indol-2-one]	300 to 3000 nM	300 to 3000 nM	310 to 312 °C (dec.)	–	–	–
O=C1Nc2cc(F)ccc2C1c1ncnc2c1cnn2C1CCCCC1 (stereo not drawn) [Example 73, 3-(1-Cyclohexyl-1H-pyrazolo[3,4-d]pyrimidin-4-yl)-6-fluoro-1,3-dihydro-indol-2-one]	> 10000 nM	> 10000 nM	277 to 280 °C	–	–	–
O=c1[nH]c2ccccc2n1-c1ncnc2nn(C3CCCC3)cc12 [Example 44, 1-(2-Cyclopentyl-2H-pyrazolo[3,4-d]pyrimidin-4-yl)-1,3-dihydro-benzoimidazol-2-one]	> 10000 nM	> 10000 nM	236 to 240 °C	–	–	–
O=C1Nc2ccc(Cl)cc2C1c1ncnc2c1cnn2C1CCCC1 (stereo not drawn) [Example 58, 5-Chloro-3-(1-cyclopentyl-1H-pyrazolo[3,4-d]pyrimidin-4-yl)-1,3-dihydro-indol-2-one]	> 10000 nM	–	304 to 306 °C	–	–	> 3000 nM
O=C1Nc2cc(Cl)ccc2C1c1ncnc2nn(C3CCCCC3)cc12 (stereo not drawn) [Example 51, 6-Chloro-3-(2-cyclohexyl-2H-pyrazolo[3,4-d]pyrimidin-4-yl)-1,3-dihydro-indol-2-one]	–	–	299 to 303 °C	> 3000 nM	–	–
CNCCCNc1nc(C2C(=O)Nc3ccc(Br)cc32)c2cn(CCOC)nc2n1 (stereo not drawn) (as salt: hydrochloride) [Example 226, 5-Bromo-3-[2-(2-methoxy-ethyl)-6-(3-methylamino-propylamino)-2H-pyrazolo[3,4-d]pyrimdin-4-yl]-1,3-dihydro-indol-2-one]	–	–	232 to 236 °C	–	–	–

The next lines start with the values.

IC50 (CDK5/GST-p25; class symbols)	IC50 (His6-GSK-3β; class symbols)	melting point	IC50 (CDK5/GST-p25; numeric bounds)	inhibition at 10 µM (CDK5/GST-p25)	IC50 (His6-GSK-3β; numeric bounds)	SMILES
< 300 nM	300 to 3000 nM	256 to 260 °C	–	–	–	O=C1Nc2ccc(F)cc2C1c1ncnc2nn(C3CCCC3)cc12 (stereo not drawn) [Example 40, 3-(2-Cyclopentyl-2H-pyrazolo[3,4-d]pyrimidin-4-yl)-5-fluoro-1,3-dihydro-indol-2-one]
< 300 nM	< 300 nM	> 300 °C	–	–	–	CCCn1cc2c(C3C(=O)Nc4ccc(C#N)cc43)nc(NCCc3ccccn3)nc2n1 (stereo not drawn) [Example 187, 2-Oxo-3-[2-propyl-6-(2-pyridin-2-yl-ethylamino)-2H-pyrazolo[3,4-d]pyrimidin-4-yl]-2,3-dihydro-1H-indole-5-carbonitrile]
> 10000 nM	300 to 3000 nM	> 300 °C	–	–	–	O=C1Nc2ccc(C(F)(F)F)cc2C1c1ncnc2nn(C3CCCCC3)cc12 (stereo not drawn) [Example 53, 3-(2-Cyclohexyl-2H-pyrazolo [3,4-d]pyrimidin-4-yl)-5-trifluoromethyl-1,3-dihydro-indol-2-one]
> 10000 nM	300 to 3000 nM	145 to 148 °C	–	–	–	CN(C)CCNc1nc(C2C(=O)Nc3ccc(Cl)cc32)c2cn(C3CCCC3)nc2n1 (stereo not drawn) [Example 376, 5-Chloro-3-[2-cyclopentyl-6-(2-dimethylamino-ethylamino)-2H-pyrazolo [3,4-d]pyrimidin-4-yl]-1,3-dihydro-indol-2-one]
300 to 3000 nM	< 300 nM	> 300 °C	–	–	–	CC(=O)NCCNc1nc(C2C(=O)Nc3ccc(C(F)(F)F)cc32)c2cn(C3CCCC3)nc2n1 (stereo not drawn) [Example 163, 3-(2-cyclopentyl-6-(2-acetylamino-ethylamino)-2H-pyrazolo [3,4-d]pyrimidin-4-yl)-5-trifluoromethyl-1,3-dihydro-indol-2-one]
–	< 300 nM	> 300 °C	> 3000 nM	–	–	O=C1Nc2ccc(C(F)(F)F)cc2C1c1nc(NCc2ccncc2)nc2nn(C3CCCC3)cc12 (stereo not drawn) [Example 246, 3-{2-Cyclopentyl-6-[(pyridin-4-ylmethyl)-amino]-2H-pyrazolo[3,4-d]pyrimidin-4-yl}-5-trifluoromethyl-1,3-dihydro-indol-2-one]
< 300 nM	< 300 nM	322 to 326 °C	–	–	–	CCCn1cc2c(C3C(=O)Nc4ccc(Br)cc43)nc(NC[C@H](C)O)nc2n1 (stereo partly drawn) [Example 194, 5-Bromo-3-[6-((S)-2-hydroxy-propylamino)-2-propyl-2H-pyrazolo[3,4-d]pyrimidin-4-yl]-1,3-dihydro-indol-2-one]
300 to 3000 nM	< 300 nM	209 to 226 °C	–	–	–	CC(=O)NCCNc1nc(C2C(=O)Nc3ccc(Cl)cc32)c2cn(C3CCCC3)nc2n1 (stereo not drawn) [Example 276, N-{2-[4(5-Chloro-2-oxo-2,3-dihydro-1H-indol-3-yl)-2-cyclopentyl-2H-pyrazolo[3,4-d]pyrimidin-6-ylamino]-ethyl}-acetamide]
< 300 nM	< 300 nM	265 °C (dec.)	–	–	–	C=CCNc1nc(C2C(=O)Nc3ccc(C#N)cc32)c2cn(CCCCC)nc2n1 (stereo not drawn) [Example 293, 3-(6-Allylamino-2-pentyl-2H-pyrazolo[3,4-d]pyrimidin-4-yl)-2-oxo-2,3-dihydro-1H-indole-5-carbonitrile]
–	< 300 nM	288 to 291 °C	> 1000 nM	–	–	O=C1Nc2ccc(C(F)(F)F)cc2C1c1nc(NCCCN2CCOCC2)nc2nn(C3CCCC3)cc12 (stereo not drawn) [Example 162, 3-[2-cyclopentyl-6-(3-morpholin-4-yl-propylamino)-2H-pyrazolo [3,4-d]pyrimidin-4-yl]-5-trifluoromethyl-1,3-dihydro-indol-2-one]
< 300 nM	< 300 nM	282 to 287 °C	–	–	–	CC(C)Cn1cc2c(C3C(=O)Nc4ccc(Br)cc43)nc(NCCN3CCOCC3)nc2n1 (stereo not drawn) [Example 264, 5-Bromo-3-[2-isobutyl-6-(2-morpholin-4-yl-ethylamino)-2H-pyrazolo[3,4-d]pyrimidin-4-yl]-1,3-dihydro-indol-2-one]
< 300 nM	< 300 nM	243 to 243.5 °C	–	–	–	N#Cc1ccc2c(c1)C(c1nc(N(CCO)CCO)nc3nn(C4CCCC4)cc13)C(=O)N2 (stereo not drawn) [Example 168, 3-{6-[bis(2-hydroxyethyl)amino]-2-cyclopentyl-2H-pyrazolo[3,4-d]pyrimidin-4-yl}-2-oxo-2,3-dihydro-1H-indole-5-carbonitrile]
< 300 nM	< 300 nM	297 to 298.5 °C	–	–	–	CC(C)CNc1nc(C2C(=O)Nc3ccc(C#N)cc32)c2cn(C3CCCC3)nc2n1 (stereo not drawn) [Example 165, 3-(2-cyclopentyl-6-isobutylamino-2H-pyrazolo [3,4-d]pyrimidin-4-yl)-2-oxo-2,3-dihydro-1H-indole-5-carbonitrile]
< 300 nM	< 300 nM	252 to 256 °C	–	–	–	[N-]=[N+]=NCCCn1cc2c(C3C(=O)Nc4ccc(Br)cc43)ncnc2n1 (stereo not drawn) [Example 89, 3-[2-(3-azido-propyl)-2H-pyrazolo[3,4-d]pyrimidin-4-yl]-5-bromo-1,3-dihydro-indol-2-one]
< 300 nM	< 300 nM	290 to 292 °C	–	–	–	O=C1Nc2ccc(Cl)cc2C1c1ncnc2nn(C3CCCC3)cc12 (stereo not drawn) [Example 36, 5-Chloro-3-(2-Cyclopentyl-2H-pyrazolo [3,4-d]pyrimidin-4-yl)-2-oxo-1,3-dihydro-indol-2-one]
